The text below walks through data of patent US20050038072A1, “Nitrogeneous cyclic ketone derivative, process for producing the same, and use” (Takeda Chemical Industries, Ltd., priority 2001, published 2005).

One data set has as its target T1, substance P receptor (Homo sapiens, UniProt P25103).
T1 construct: endogenous in cells; host or cells: IM-9 human lymphoblast cells (membrane preparation)
Kind of data set: Radioligand receptor binding inhibiting activity (binding inhibitory activity using receptor from human lymphoblast cell (IM-9)). The settings on record: radioligand [125I]-labeled substance P (125I-BHSP), 25° C., 30 minutes. How it is done:
Radioligand receptor binding inhibiting activity (binding inhibitory activity using receptor from human lymphoblast cell (IM-9))
A modified method by M. A. Cascieri et al (Molecular Pharmacology, Vol. 42, p. 458 (1992)) was employed. The receptor was prepared from a human lymphoblast cell (IM-9). After inoculation of IM-9 cells (2×10^5 cells/ml), the cells were cultured for 3 days (1L), and then the culture was centrifuged at 500×G for 5 minutes to obtain a cell pellet. The resultant pellet was washed once with a phosphate buffer (FLOW LABORATORIES, CAT. No. 28-103-05), fractured in 30 ml of a 50 mM Tris-HCl buffer (pH 7.4) containing 120 mM sodium chloride, 5 mM potassium chloride, 2 μg/ml chymostatin, 40 μg/ml bacitracin, 5 μg/ml phosphoramidone, 0.5 mM phenylmethylsulfonyl fluoride and 1 mM ethylenediamine tetraacetic acid using a polytron homogenizer (Kinematika, Germany), and centrifuged at 40,000×G for 20 minutes. The separated material was washed twice with 30 ml of the buffer solution described above and stored frozen as a receptor standard preparation (−80° C.)
This preparation was suspended in a reaction buffer [50 mM Tris-HCl buffer (pH 7.4), 0.02% bovine serum albumin, 1 mM phenylmethylsulfonyl fluoride, 2 μg/ml of chymostatin, 40 μg/ml bacitracin, 3 mM manganese chloride] at a protein concentration of 0.5 mg/ml and a 100 μl portion was used for the reaction. The sample, 125I-BHSP (0.46 KBq) was also added and the mixture was reacted in a 0.2 ml reaction buffer at 25° C. for 30 minutes. A non-specific binding level was measured by adding substance P at 2×10^−6 M.
After the reaction, a Cell Harvester [290PHD manufactured by Cambridge Technology, Inc, USA] was used to conduct a rapid filtration over a glass filter [GF/B manufactured by Whatman, USA] whereby terminating the reaction, followed by washing three times with 250 μl of a 50 mM Tris-HCl buffer solution (pH 7.4) containing 0.02% bovine serum albumin. Then, the radioactivity remaining on the filter was counted with a gamma counter. The filter was used after immersing in a 0.1% polyethylene imine over a whole day and night followed by drying in air.
The radioligand means [^125I]-labeled substance P.

Structures can show the parent of a compound that is named as a salt.

T1 sequence (P25103 whole entry): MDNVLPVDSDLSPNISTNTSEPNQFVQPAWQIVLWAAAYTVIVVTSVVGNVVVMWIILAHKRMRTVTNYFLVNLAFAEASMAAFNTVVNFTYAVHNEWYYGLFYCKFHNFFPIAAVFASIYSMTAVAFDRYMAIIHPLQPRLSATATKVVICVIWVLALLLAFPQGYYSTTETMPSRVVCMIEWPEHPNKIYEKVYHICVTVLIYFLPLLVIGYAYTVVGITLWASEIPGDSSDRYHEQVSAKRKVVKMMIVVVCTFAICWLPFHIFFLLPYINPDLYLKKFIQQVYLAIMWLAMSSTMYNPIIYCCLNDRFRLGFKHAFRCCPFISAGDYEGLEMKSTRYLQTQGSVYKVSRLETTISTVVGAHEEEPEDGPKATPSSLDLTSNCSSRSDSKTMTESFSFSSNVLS

In general, melting point refers to the temperature, or range, at which the solid turns liquid. Regarding `O=C1CCNCC1C(c1ccccc1)c1ccccc1F` (centres unmarked) (as salt: hydrochloride), the melting point was in the range of 204 to 205 °C.
Usually IC50 stands for the concentration that inhibits the measured activity by half. A higher IC50 goes with lower potency. With `COc1ccc(Br)cc1CN1CCC(=O)C(C(c2ccc(F)cc2)c2ccc(F)cc2)C1` (single isomer, unassigned; (-)) [Example 163, (−)-3-[Bis(4-fluorophenyl)methyl]-1-(5-bromo-2-methoxybenzyl)-4-piperidinone], the IC50 at substance P receptor worked out at 0.62 nM.
Regarding `CCOc1ccccc1CN1CCC(=O)C(C(c2ccc(F)cc2)c2ccc(F)cc2)C1` (centres unmarked) [Example 98, 3-[Bis(4-fluorophenyl)methyl]-1-(2-ethoxybenzyl)-4-piperidinone], at substance P receptor, the IC50 was 0.85 nM.
The molecule `CCOc1ccc([N+](=O)[O-])cc1CN1CCC(=O)C(C(c2ccccc2)c2ccccc2)C1` (centres unmarked) [Example 185, 3-Benzhydryl-1-(2-ethoxy-5-nitrobenzyl)-4-piperidinone] yielded an IC50 on substance P receptor of 0.29 nM.
As to `O=C1CCN(Cc2ccccc2)CC1C(c1ccc(Cl)cc1)c1ccccc1Cl` (centres unmarked) (as salt: hydrochloride) [Example 158, 1-Benzyl-3-[(2-chlorophenyl)(4-chlorophenyl)methyl]-4-piperidinone], the melting point is 190 to 191 °C.
As for `COc1ccc(C(C)C)cc1CN1CCC(=O)C(C(c2ccccc2)c2ccccc2)C1` (centres unmarked) [Example 175, 3-Benzhydryl-1-(5-isopropyl-2-methoxybenzyl)-4-piperidinone], the IC50 on substance P receptor was 0.42 nM.
Turning to `CCOc1ccccc1CN1CCC(=O)C(C(c2ccccc2)c2ccccc2)C1` (centres unmarked) [Example 99, 3-Benzhydryl-1-(2-ethoxybenzyl)-4-piperidinone], at substance P receptor, the IC50 amounted to 0.44 nM.
As to `COc1ccc(OC(F)(F)F)cc1CN1CCC(=O)C(C(c2ccccc2)c2ccccc2)C1` (centres unmarked) (as salt: hydrochloride) [Example 168, 3-Benzhydryl-1-[2-methoxy-5-(trifluoromethoxy)benzyl]-4-piperidinone], the melting point lay in the range of 174 to 175 °C.
`O=C1CNCCC1C1c2ccccc2CCc2ccccc21` (centres unmarked) (as salt: hydrochloride) [Example 198, 4-(10,11-Dihydro-5H-dibenzo[a,d][7]annulen-5-yl)-3-piperidinone]: the melting point was 196 to 198 °C (dec.).
`O=C1CN(Cc2ccccc2)CCC1C(c1ccc(F)cc1)c1ccc(F)cc1` (centres unmarked) (as salt: hydrochloride) [Example 195, 1-Benzyl-4-[bis(4-fluorophenyl)methyl]-3-piperidinone] displayed a melting point of 177.5 to 179 °C.
Consider `COc1ccc2ccccc2c1CN1CCC(=O)C(C(c2ccc(F)cc2)c2ccc(F)cc2)C1` (centres unmarked) [Example 148, 3-[Bis(4-fluorophenyl)methyl]-1-[(2-methoxy-1-naphthyl)methyl]-4-piperidinone], for which the melting point lay within 125 to 126 °C.
As to `COc1ccc([N+](=O)[O-])cc1CN1CCC(=O)C(C(c2ccccc2)c2ccccc2)C1` (centres unmarked) [Example 176, 3-Benzhydryl-1-(2-methoxy-5-nitrobenzyl)-4-piperidinone], the melting point is 119 to 120 °C.
For `O=C1CCN(Cc2cc([N+](=O)[O-])ccc2O)CC1C(c1ccccc1)c1ccccc1` (centres unmarked) [Example 184, 3-Benzhydryl-1-(2-hydroxy-5-nitrobenzyl)-4-piperidinone], the melting point lay in the range of 177 to 178 °C.
`COc1ccc(OC(F)(F)F)cc1CN1CCC(=O)C(C(c2ccccc2)c2ccccc2)C1` (centres unmarked) [Example 168, 3-Benzhydryl-1-[2-methoxy-5-(trifluoromethoxy)benzyl]-4-piperidinone]: the IC50 at substance P receptor was 0.34 nM.
`COc1c(CN2CCC(=O)C(C(c3ccccc3)c3ccccc3)C2)cc(C(C)(C)C)cc1C(C)(C)C` (centres unmarked) [Example 161, 3-Benzhydryl-1-(3,5-di-tert-butyl-2-methoxybenzyl)-4-piperidinone] yielded a melting point of 136 to 138 °C.
The molecule `COc1ccc(N(S(C)(=O)=O)S(C)(=O)=O)cc1CN1CCC(=O)C(C(c2ccccc2)c2ccccc2)C1` (centres unmarked) [Example 178, N-[3-[(3-Benzhydryl-4-oxo-1-piperidinyl)methyl]-4-methoxyphenyl]-N-(methylsulfonyl)methanesulfonamide] had a melting point of 132 to 135 °C.
Turning to `CCOc1cccc(OC)c1CN1CCC(=O)C(C(c2ccccc2)c2ccccc2)C1` (centres unmarked) [Example 170, 3-Benzhydryl-1-(2-ethoxy-6-methoxybenzyl)-4-piperidinone], the melting point was 137 to 138 °C.
Molecule `COc1ccc(NS(C)(=O)=O)cc1CN1CCC(=O)C(C(c2ccccc2)c2ccccc2)C1` (centres unmarked) [Example 183, N-[3-[(3-Benzhydryl-4-oxo-1-piperidinyl)methyl]-4-methoxyphenyl]methanesulfonamide] displayed a melting point of 132 to 135 °C. The same molecule displayed an IC50 at substance P receptor of 0.26 nM.
In turn, `O=C1CCN(Cc2ccccc2)CC1C(c1ccccc1)c1ccccc1F` (centres unmarked) (as salt: hydrochloride) [Example 157, 1-Benzyl-3-[(2-fluorophenyl)(phenyl)methyl]-4-piperidinone] gave a melting point of 214 to 215 °C.
